Measurements published in PubChem BioAssay (NCI).
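Where inhibition never reached the appropriate level, the endpoint shown equals the highest concentration tested. Otherwise, values were interpolated linearly from a five-concentration, 48-hour dose response in 96-well plates. Here, GI50 denotes the concentration required for 50% inhibition of growth. TGI marks complete inhibition of growth.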

Key:
Test in all cases: DTP human tumour cell line panel, 48 h; in the data active means GI50 below about 0.43 µM; inactive means the rest
[1] = test system: 786-0 renal
[2] = test system: A549 NSCLC
[3] = test system: ACHN renal
[4] = test system: BT-549 breast
[5] = test system: CCRF-CEM leukemia
[6] = test system: COLO 205 colon
[7] = test system: DU-145 prostate
[8] = test system: EKVX NSCLC
[9] = test system: HCC-2998 colon
[10] = test system: HCT-116 colon
[11] = test system: HCT-15 colon
[12] = test system: HL-60(TB) leukemia
[13] = test system: HOP-62 NSCLC
[14] = test system: HOP-92 NSCLC
[15] = test system: HS 578T breast
[16] = test system: HT29 colon
[17] = test system: IGROV1 ovarian
[18] = test system: K-562 leukemia
[19] = test system: KM12 colon
[20] = test system: LOX IMVI melanoma
[21] = test system: M14 melanoma
[22] = test system: MALME-3M melanoma
[23] = test system: MCF7 breast
[24] = test system: MDA-MB-231 breast
[25] = test system: MDA-MB-435
[26] = test system: MOLT-4 leukemia
[27] = test system: NCI-H226 lung
[28] = test system: NCI-H23 lung
[29] = test system: NCI-H522 lung
[30] = test system: NCI/ADR-RES ovarian
[31] = test system: OVCAR-3 ovarian
[32] = test system: OVCAR-4 ovarian
[33] = test system: OVCAR-5 ovarian
[34] = test system: OVCAR-8 ovarian
[35] = test system: PC-3 prostate
[36] = test system: RPMI-8226 leukemia
[37] = test system: RXF 393 renal
[38] = test system: SF-268 CNS
[39] = test system: SF-295 CNS
[40] = test system: SF-539 CNS
[41] = test system: SK-MEL-2 melanoma
[42] = test system: SK-MEL-28 melanoma
[43] = test system: SK-MEL-5 melanoma
[44] = test system: SK-OV-3 ovarian
[45] = test system: SN12C renal
[46] = test system: SNB-19 CNS
[47] = test system: SNB-75 CNS
[48] = test system: SR leukemia
[49] = test system: SW-620 colon
[50] = test system: T-47D breast
[51] = test system: TK-10 renal
[52] = test system: U251 CNS
[53] = test system: UACC-257 melanoma
[54] = test system: UACC-62 melanoma
[55] = test system: UO-31 renal
[56] = test system: CAKI-1 renal
[57] = test system: NCI-H460 lung

Nc1nc2cc(-c3ccc4ncc(C(=O)N5CCOCC5)n4c3)ccc2o1
60.9 µM: TGI [12]
80.3 µM: TGI [52]
84.5 µM: TGI [46]
15.7 µM: TGI [47]
inactive: GI50 [1] 14.6 µM | GI50 [2] 4.86 µM | GI50 [3] 4.28 µM | GI50 [4] 4.39 µM | GI50 [5] 8.74 µM | GI50 [6] 3.44 µM | GI50 [7] 9.09 µM | GI50 [8] 4.26 µM | GI50 [9] 10 µM | GI50 [10] 4.4 µM | GI50 [11] 5.4 µM | GI50 [12] 2.95 µM | GI50 [13] 4.23 µM | GI50 [14] 1.35 µM | GI50 [15] 3.36 µM | GI50 [16] 3.52 µM | GI50 [17] 1.74 µM | GI50 [18] 47 µM | GI50 [19] 14.4 µM | GI50 [20] 4.74 µM | GI50 [21] 4.64 µM | GI50 [22] 1.23 µM | GI50 [23] 1.39 µM | GI50 [24] 4.89 µM | GI50 [25] 5.71 µM | GI50 [26] 4.15 µM | GI50 [27] 5.2 µM | GI50 [28] 6.58 µM | GI50 [29] 7.13 µM | GI50 [30] 44.6 µM | GI50 [31] 13.9 µM | GI50 [32] 6.07 µM | GI50 [33] 2.74 µM | GI50 [34] 13.4 µM | GI50 [35] 3.19 µM | GI50 [36] 6.36 µM | GI50 [37] 5.51 µM | GI50 [38] 9.82 µM | GI50 [39] 5.53 µM | GI50 [40] 9.81 µM | GI50 [41] 5.33 µM | GI50 [42] 5.4 µM | GI50 [43] 3.95 µM | GI50 [44] 1.59 µM | GI50 [45] 6.66 µM | GI50 [46] 15.4 µM | GI50 [47] 0.916 µM | GI50 [48] 2.85 µM | GI50 [49] 10.8 µM | GI50 [51] 2.41 µM | GI50 [52] 11.1 µM | GI50 [53] 7.8 µM | GI50 [54] 4.14 µM | GI50 [55] 2.09 µM
49.3 µM: TGI [13]
88.5 µM: TGI [29]
3.52 µM: TGI [50]
27.5 µM: TGI [51]
36.7 µM: TGI [37]
37.9 µM: TGI [4]
6.6 µM: TGI [17]
7.15 µM: TGI [22]
50.7 µM: TGI [43]
7.16 µM: TGI [44]
74.9 µM: TGI [26]
46.8 µM: TGI [41]
> 100 µM: TGI [1] | TGI [2] | TGI [3] | TGI [5] | TGI [6] | TGI [7] | TGI [8] | TGI [9] | TGI [10] | TGI [11] | TGI [16] | TGI [18] | TGI [19] | TGI [20] | TGI [21] | TGI [23] | TGI [25] | TGI [27] | TGI [28] | TGI [30] | TGI [31] | TGI [32] | TGI [33] | TGI [34] | TGI [35] | TGI [36] | TGI [38] | TGI [42] | TGI [45] | TGI [48] | TGI [49] | TGI [53] | TGI [54]
30 µM: TGI [15]
64.8 µM: TGI [39]
67.9 µM: TGI [24]
35.6 µM: TGI [55]
9.53 µM: TGI [14]
active: GI50 [50] 0.417 µM
73.3 µM: TGI [40]

CC(=O)c1c(-c2ccco2)c(C#N)c(=S)n(C2OC(CO)C(O)C(O)C2O)c1-c1ccccc1 (stereo unspecified)
85.9 µM: TGI [12]
59.7 µM: TGI [46]
> 100 µM: TGI [2] | TGI [3] | TGI [4] | TGI [56] | TGI [5] | TGI [6] | TGI [7] | TGI [8] | TGI [10] | TGI [11] | TGI [13] | TGI [15] | TGI [16] | TGI [17] | TGI [18] | TGI [19] | TGI [20] | TGI [21] | TGI [22] | TGI [23] | TGI [24] | TGI [25] | TGI [26] | TGI [28] | TGI [57] | TGI [30] | TGI [31] | TGI [32] | TGI [33] | TGI [34] | TGI [35] | TGI [36] | TGI [37] | TGI [38] | TGI [39] | TGI [40] | TGI [42] | TGI [43] | TGI [44] | TGI [45] | TGI [47] | TGI [48] | TGI [49] | TGI [50] | TGI [51] | TGI [52] | TGI [53] | TGI [54] | TGI [55]
